Data as given in patent US10316049B2, “Tank-binding kinase inhibitor compounds” (Gilead Sciences, Inc., priority 2015, dated 2019).

Columns and labels:
IKKε = target: T1, IKKε (Homo sapiens, UniProt Q14164); assay: TR-FRET enzymatic activity assay, IKKε; assay type: biochemical; conditions: read-out: IKKϵ IC50; note: full length recombinant IKKε at 0.3 nM
T1 construct: TBK1 and IKKε were expressed and purified as full length recombinant proteins; made in house
T1 sequence (Q14164 1-716): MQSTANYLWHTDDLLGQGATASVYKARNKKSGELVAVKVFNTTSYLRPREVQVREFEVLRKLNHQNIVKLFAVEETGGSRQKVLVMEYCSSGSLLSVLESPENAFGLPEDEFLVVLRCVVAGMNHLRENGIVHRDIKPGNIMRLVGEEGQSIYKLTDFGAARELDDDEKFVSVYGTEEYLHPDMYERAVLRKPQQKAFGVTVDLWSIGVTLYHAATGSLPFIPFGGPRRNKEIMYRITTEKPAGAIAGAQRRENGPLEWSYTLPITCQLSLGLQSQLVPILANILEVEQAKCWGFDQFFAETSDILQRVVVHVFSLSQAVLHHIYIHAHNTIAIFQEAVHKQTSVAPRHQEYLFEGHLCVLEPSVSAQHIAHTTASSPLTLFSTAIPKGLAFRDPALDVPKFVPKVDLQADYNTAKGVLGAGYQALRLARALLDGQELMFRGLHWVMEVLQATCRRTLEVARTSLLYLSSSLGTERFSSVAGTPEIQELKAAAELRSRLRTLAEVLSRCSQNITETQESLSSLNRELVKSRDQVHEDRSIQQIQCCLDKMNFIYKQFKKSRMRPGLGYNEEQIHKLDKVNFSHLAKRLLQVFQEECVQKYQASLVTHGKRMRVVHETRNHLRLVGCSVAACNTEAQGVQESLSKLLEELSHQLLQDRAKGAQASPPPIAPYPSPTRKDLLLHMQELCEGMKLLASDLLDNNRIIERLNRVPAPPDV
Procedure: (§1) Biological Assay for TBK1 and IKKε:
Enzymatic activity of IKKε and TBK1 was measured using a homogeneous time resolved fluorescence resonance energy transfer (TR-FRET) assay that monitors enzyme dependent phosphorylation of a biotinylated serine/threonine peptide substrate. […] TBK1 and IKKε were expressed and purified as full length recombinant proteins. Detection reagents for the assay were purchased from Cisbio. […] After an assay reaction time of 240 minutes at 25° C., reactions were terminated with EDTA.
(§2) Amount of phosphorylated peptide was determined by the addition of 125 nM streptavidin XL665 and europium cryptate labeled anti-phospho monoclonal antibody and the resulting TR-FRET signal was recorded on an Envision plate reader (Ex: 340 nm; Em: 615/665 nm; 100 μs delay and 200 μs read window). Data was normalized based on a positive (1 μM Staurosporine) and negative (DMSO) controls and IC50 values calculated from the fit of the dose-response curves to a four-parameter equation. All IC50 values represent geometric mean values of a minimum of four determinations.

TBK1 = target: T2, TBK1 (Homo sapiens, UniProt Q9UHD2); assay: TR-FRET enzymatic activity assay, TBK1; assay type: biochemical; note: full length recombinant TBK1 at 2.5 nM
T2 construct: TBK1 and IKKε were expressed and purified as full length recombinant proteins; made in house
T2 sequence (Q9UHD2 1-729): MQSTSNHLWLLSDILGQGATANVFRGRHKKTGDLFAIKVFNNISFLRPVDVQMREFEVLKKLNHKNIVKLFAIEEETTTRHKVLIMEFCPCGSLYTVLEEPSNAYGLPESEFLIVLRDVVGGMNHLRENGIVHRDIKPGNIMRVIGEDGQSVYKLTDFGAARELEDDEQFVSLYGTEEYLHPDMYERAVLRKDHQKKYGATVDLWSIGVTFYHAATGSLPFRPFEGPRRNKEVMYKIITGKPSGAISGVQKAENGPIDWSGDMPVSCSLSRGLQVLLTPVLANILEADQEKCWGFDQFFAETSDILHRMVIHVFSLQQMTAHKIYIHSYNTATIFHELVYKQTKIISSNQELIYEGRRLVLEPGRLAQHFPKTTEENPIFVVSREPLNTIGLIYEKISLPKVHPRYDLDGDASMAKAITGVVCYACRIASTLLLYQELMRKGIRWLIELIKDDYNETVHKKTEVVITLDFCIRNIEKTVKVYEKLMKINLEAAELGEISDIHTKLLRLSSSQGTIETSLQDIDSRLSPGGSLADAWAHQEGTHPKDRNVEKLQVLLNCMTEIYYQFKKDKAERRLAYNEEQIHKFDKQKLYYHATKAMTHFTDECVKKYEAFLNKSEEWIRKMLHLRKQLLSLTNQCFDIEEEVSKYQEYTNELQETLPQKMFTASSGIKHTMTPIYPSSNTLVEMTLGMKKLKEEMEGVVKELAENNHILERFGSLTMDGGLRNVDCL
Procedure: as §1
Enzymatic activity of IKKε and TBK1 was measured using a homogeneous time resolved fluorescence resonance energy transfer (TR-FRET) assay that monitors enzyme dependent phosphorylation of a biotinylated serine/threonine peptide substrate. An increase in the amount of phosphorylated peptide results in an increase in TR-FRET signal. TBK1 and IKKε were expressed and purified as full length recombinant proteins. Detection reagents for the assay were purchased from Cisbio. […] After an assay reaction time of 240 minutes at 25° C., reactions were terminated with EDTA.
as §2, with “determinations. These assays generally produced results within 3-fold of the reported mean.” for “determinations.”

SMILES | IC50 (IKKε) [nM] | IC50 (TBK1) [nM]
CCOC(=O)[C@@H]1C[C@H]1C(=O)Nc1cc(-c2ccc(OC3CCOCC3)c(C#N)c2)ncn1 (relative stereo) [Example 35, (trans)-ethyl 2-((6-(3-cyano-4-((tetrahydro-2H-pyran-4-yl)oxy)phenyl)pyrimidin-4-yl)carbamoyl)cyclopropanecarboxylate] | > 1000 | 485
CON(C)C(=O)[C@@H]1C[C@H]1C(=O)Nc1cc(-c2ccc(OC3CCOCC3)c(C#N)c2)ccn1 (relative stereo) [Example 38] | 253 | 305
N#Cc1cc(-c2ccnc(NC(=O)[C@@H]3C[C@H]3C=O)c2)ccc1OC1CCOCC1 (relative stereo) [Example 40, (1,2-trans)-N-(4-(3-cyano-4-((tetrahydro-2H-pyran-4-yl)oxy)phenyl)pyridin-2-yl)-2-formylcyclopropane-1-carboxamide] | 65 | 61.5
CN(C)C[C@@H]1C[C@H]1C(=O)Nc1cc(-c2ccc(OC3CCOCC3)c(C#N)c2)ccn1 (relative stereo) [Example 41, (1,2-trans)-N-(4-(3-cyano-4-((tetrahydro-2H-pyran-4-yl)oxy)phenyl)pyridin-2-yl)-2-((dimethylamino)methyl)cyclopropane-1-carboxamide] | 80.3 | 267
N#Cc1cc(-c2ccnc(NC(=O)[C@@H]3C[C@H]3CO)c2)ccc1OC1CCOCC1 (relative stereo) [Example 42, (1,2-trans)-N-(4-(3-cyano-4-((tetrahydro-2H-pyran-4-yl)oxy)phenyl)pyridin-2-yl)-2-(hydroxymethyl)cyclopropane-1-carboxamide] | 48.2 | 62.1
N#Cc1cc(-c2ccnc(NC(=O)[C@@H]3C[C@H]3c3cnco3)c2)ccc1OC1CCOCC1 (relative stereo) [Example 43, (1,2-trans)-N-(4-(3-cyano-4-((tetrahydro-2H-pyran-4-yl)oxy)phenyl)pyridin-2-yl)-2-(oxazol-5-yl)cyclopropane-1-carboxamide] | 146 | 61.3
N#Cc1cc(-c2ccnc(NC(=O)[C@@H]3C[C@H]3C3OCCO3)c2)ccc1OC1CCOCC1 (relative stereo) [Example 44, (1,2-trans)-N-(4-(3-cyano-4-((tetrahydro-2H-pyran-4-yl)oxy)phenyl)pyridin-2-yl)-2-(1,3-dioxolan-2-yl)cyclopropane-1-carboxamide] | 192 | 33.3
N#Cc1cc(-c2ccnc(NC(=O)[C@@H]3C[C@H]3C(=O)N3CC(O)C3)c2)ccc1OC1CCOCC1 (relative stereo) [Example 45, (1,2-trans)-N-(4-(3-cyano-4-((tetrahydro-2H-pyran-4-yl)oxy)phenyl)pyridin-2-yl)-2-(3-hydroxyazetidine-1-carbonyl)cyclopropane-1-carboxamide] | 427 | 444
N#Cc1cc(-c2ccnc(NC(=O)[C@@H]3C[C@H]3C(=O)NCCO)c2)ccc1OC1CCOCC1 (relative stereo) [Example 46, (1,2-trans)-N1-(4-(3-cyano-4-((tetrahydro-2H-pyran-4-yl)oxy)phenyl)pyridin-2-yl)-N2-(2-hydroxyethyl)cyclopropane-1,2-dicarboxamide] | 429 | 302
Cc1cc([C@@H]2C[C@H]2C(=O)Nc2cc(-c3ccc(OC4CCOCC4)c(C#N)c3)ccn2)on1 (relative stereo) [Example 47, (1,2-trans)-N-(4-(3-cyano-4-((tetrahydro-2H-pyran-4-yl)oxy)phenyl)pyridin-2-yl)-2-(3-methylisoxazol-5-yl)cyclopropane-1-carboxamide] | 269 | 29.4
CCOC(=O)[C@@H]1C[C@H]1C(=O)Nc1cc(-c2ccc(OC3CCOCC3)c(C#N)c2)ccn1 (relative stereo) [Example 50, Ethyl trans-2-((4-(3-cyano-4-((tetrahydro-2H-pyran-4-yl)oxy)phenyl)pyridin-2-yl)carbamoyl)cyclopropane-1-carboxylate] | 535 | 230
COC(=O)[C@@H]1C[C@H]1C(=O)Nc1cc(-c2ccc(O[C@H]3CCN(C(=O)CO)C[C@H]3F)c(C#N)c2)ccn1 (relative stereo) [Example 83, Methyl (1,2-trans)-2-((4-(3-cyano-4-(((3R,4S)-3-fluoro-1-(2-hydroxyacetyl)piperidin-4-yl)oxy)phenyl)pyridin-2-yl)carbamoyl)cyclopropane-1-carboxylate] | 53.3 | 47.9
N#Cc1cc(-c2ccnc(NC(=O)[C@H]3C[C@@H]3[N+](=O)[O-])c2)ccc1OC1CCOCC1 (relative stereo) [Example 86, (1,2 trans)-N-(4-(3-cyano-4-((tetrahydro-2H-pyran-4-yl)oxy)phenyl)pyridin-2-yl)-2-nitrocyclopropane-1-carboxamide] | 314 | 529
N#Cc1cc(-c2ccnc(NC(=O)[C@H]3C[C@@H]3C3CC3)c2)ccc1OC1CCOCC1 (relative stereo) [Example 88, (1,2-trans)-N-(4-(3-cyano-4-((tetrahydro-2H-pyran-4-yl)oxy)phenyl)pyridin-2-yl)-[1,1′-bi(cyclopropane)]-2-carboxamide] | 314 | 58.8
Cn1cc([C@@H]2C[C@H]2C(=O)Nc2cc(-c3ccc(O[C@H]4CCN(C(=O)CO)CC4(F)F)c(C#N)c3)ncn2)cn1 [Example 128, (1,2-Trans)-N-(6-(3-cyano-4-(((S)-3,3-difluoro-1-(2-hydroxyacetyl)piperidin-4-yl)oxy)phenyl)pyrimidin-4-yl)-2-(1-methyl-1H-pyrazol-4-yl)cyclopropane-1-carboxamide] |  | 7.2
Cn1cc([C@@H]2C[C@H]2C(=O)Nc2cc(-c3ccc(O[C@H]4CCN(C(=O)CO)CC4(F)F)c(C#N)c3)ncn2)cn1 [Example 137, (1R,2R)—N-(6-(3-cyano-4-(((S)-3,3-difluoro-1-(2-hydroxyacetyl)piperidin-4-yl)oxy)phenyl)pyrimidin-4-yl)-2-(1-methyl-1H-pyrazol-4-yl)cyclopropane-1-carboxamide] |  | 21.4
Cn1cc([C@H]2C[C@@H]2C(=O)Nc2cc(-c3ccc(O[C@H]4CCN(C(=O)CO)CC4(F)F)c(C#N)c3)ncn2)cn1 [Example 138, (1S,2S)—N-(6-(3-cyano-4-(((S)-3,3-difluoro-1-(2-hydroxyacetyl)piperidin-4-yl)oxy)phenyl)pyrimidin-4-yl)-2-(1-methyl-1H-pyrazol-4-yl)cyclopropane-1-carboxamide] |  | 5.9
